Tested on: mice
Test: acute toxicity (LD50) after bolus intravenous administration
Type: in vivo
Conditions: ratio to the analogue lacking the 6-substituent (or 5- and 6-substituents) in the pyridyl group
Excerpt: The compounds of Structure (2) have particularly good histamine H,- and H2- antagonist activity and are less acutely toxic in mice (when administered intravenously) than the corresponding compounds of Structure (2) in which R is hydrogen. This decrease in acute toxicity is in general is not accompanied by a reduction in histamine H1-antagonist activity or histamine H2-antagonist activity. […] (LD50 is the minimum dose which kills 50% of mice after bolus intravenous administration of the test compound).

Row | SMILES | LD50 value compared with the corresponding 5-(3-pyridylmethyl) analogue
1 | COc1cccnc1CCCCNc1ncc(Cc2ccc(C)nc2)c(=O)[nH]1 [Example 1, 2-[4-(3-methoxy-2-pyridyl)butylamino]-5-(6-methyl-3-pyridylmethyl)-4-pyrimidone] | at least three
2 | COc1ccc(Cc2cnc(NCCSCc3nc[nH]c3C)[nH]c2=O)cn1 [Example 13, 2-[2-(5-methyl-4-imidazolylmethylthio)ethylamino]-5-(6-methoxy-3-pyridyImethyl)-4-pyrimidone] | at least three
3 | Cc1cc(Cc2cnc(NCCSCc3ncccc3Br)[nH]c2=O)cnc1C [Example 11, 2-[2-(3-bromo-2-pyridylmethylthio)ethylamino]-5-(5,6-dimethyl-3-pyridylmethyl)-4-pyrimidone] | at least three
4 | Cc1ccc(Cc2cnc(NCCSCc3nccs3)[nH]c2=O)cn1 [Example 9, 2-[2-(2-thiazolylmethylthio)ethylamino]-5-(6-methyl-3-pyridylmethyl)-4-pyrimidone] | at least three
5 | Cc1ccc(Cc2cnc(NCCCCc3ncccc3Cl)[nH]c2=O)cn1 [Example 7, 2-[4-(3-chloro-2-pyridyl)butylamino]-5-(6-methyl-3-pyridyImethyl)-4-pyrimidone] | at least three
6 | Cc1ccc(Cc2cnc(NCCSCc3nc[nH]c3C)[nH]c2=O)cn1 [Example 2, 2-[2-(5-methyl-4-imidazolylmethylthio)ethylamino]-5-(6-methyl-3-pyridylmethyl)-4-pyrimidone] | at least three

Reference: patent EP0017679B1, “Pyridylalkylpyrimidone compounds, process for preparing them and pharmaceutical compositions containing them” (SMITH KLINE & FRENCH LABORATORIES LIMITED, priority 1979, dated 1980)
